For data set [1] the following is noted: cited from earlier work.
Data set [2] in a line: In situ single-pass jejunal perfusion of gemcitabine. Format: in vivo, C57BL/6 mice. The settings on record: for Papp at 90 min, 100 μM: pH 6, effective permeability (Peff).
The test system of data set [3] is ENT1 and ENT2. The data set is classed as in vivo, C57BL/6 mice. The following applies: 5 μM [14C]-gemcitabine, 90 min perfusion, 2 mM dilazep.
Data set [4] deals with nucleoside transporters (CNT1, CNT3, ENT1, ENT2). Kind of data set: Inhibition. The data set is classed as in vivo, C57BL/6 mice.
For data set [5] the following is noted: mice, cited from earlier work.
For data set [6], the system named is hENT2. The settings on record: read-out: Km for gemcitabine transport; Xenopus laevis oocytes; cited from earlier work.
Data set [7] has as its system hCNT1. The following applies: read-out: Km for gemcitabine transport; Xenopus laevis oocytes; cited from earlier work.
The conditions of data set [8]: 100 μM gemcitabine, female BALB/c mice, corrected for cytosine; cited from earlier work.
The subject of data set [9] is hCNT3. The settings on record: read-out: Km for gemcitabine transport; Xenopus laevis oocytes; cited from earlier work.
The subject of data set [10] is hENT1. The following applies: read-out: Km for gemcitabine transport; Xenopus laevis oocytes; cited from earlier work.
Data set [11] is described as follows: In situ single-pass jejunal perfusion of gemcitabine. Format: in vivo, BALB/c mice. The following applies: female, BALB/c, mouse, other: in situ single-pass jejunal perfusion, pH 6.
Setting [12] is: 5 μM gemcitabine co-perfused with 2 mM inhibitor, sodium-containing buffer.
Setting [13] is: from intrinsic clearance Vmax/Km, linear conditions.
[14] abbreviates: jejunal flux, 0.5 μM to 2 mM, fit to two Michaelis-Menten terms.

“And” between values parts separate entries of the source, which are not always exact repeats. Equal entries are not always repeated. “Also recorded” adds a separate entry of the source. Where two headings read alike, the source gives them in different places.

In the case of `NCC(=O)CCC(=O)O` [5-aminolevulinic acid], the “in situ jejunal permeability (Peff)” value in [1] was 0.00019 cm/s.
For the compound `Nc1cc[nH]c(=O)n1` [Cytosine, cytosine], the “cytosine in outlet samples” value in data set [2] (perfusion of 100 μM gemcitabine, C57BL/6 and BALB/c mice) is reported as “absent”.
Consider `CC1=C(C(=O)O)N2C(=O)[C@@H](NC(=O)[C@H](N)c3ccc(O)cc3)[C@H]2SC1` [cefadroxil], for which, in [1], the “in situ jejunal permeability (Peff)” value is 0.6-0.8 × 10^−4 cm/s.
Turning to `COc1cc(C(=O)OCCCN2CCCN(CCCOC(=O)c3cc(OC)c(OC)c(OC)c3)CC2)cc(OC)c1OC` [dilazep], in [3], the “effect on total gemcitabine radioactivity in intestinal (jejunal) tissue” value is “not altered; also recorded: no change” and the “total gemcitabine radioactivity in portal venous plasma, % control” value was determined as 32.5%. In data set [4] (setting [12]), the “reduction of jejunal permeability of gemcitabine” value was “about 50%” and the “residual permeability of gemcitabine” value turned out to be 50.2%.
Take `Nc1ccn([C@@H]2O[C@H](CO)[C@@H](O)C2(F)F)c(=O)n1` [gemcitabine, 2′,2′-difluoro-2′-deoxycytidine]: the oral bioavailability is on record as 10% in [5] (gemcitabine alone) and 40% in [5] (with tetrahydrouridine (cytidine deaminase inhibitor)). For the same compound, the Michaelis constant (Km) in data set [6] was roughly 750 µM; in [7], roughly 25 µM; in [9] it was roughly 60 µM; in [10], roughly 160 µM; in data set [2] (read-out: Km,1 (high-affinity, low-capacity transport system), jejunal flux, 0.5 μM to 2 mM, fit to two Michaelis-Menten terms), 27.4 ± 13.9 µM; in [2] (read-out: Km,2 (low-affinity, high-capacity transport system), jejunal flux, 0.5 μM to 2 mM, fit to two Michaelis-Menten terms) it was 700 ± 330 µM. In addition, in [8], the Peff is 20 nm/s. Also, the “residual permeability of gemcitabine” value in data set [4] (5 μM gemcitabine in sodium-free buffer (inhibits CNT1 and CNT3)) came to 31.7%. Further, the “jejunal uptake mediated by nucleoside transporters” value in data set [4] (C57BL/6 mice) is recorded as ~ 95%. Besides, the Papp at 90 min, 100 μM in [11] worked out at 1090 ± 130 nm/s; in [2] (both, C57BL/6, mouse, other: in situ single-pass jejunal perfusion, 100 μM [14C]-gemcitabine, jejunum, C57BL/6 mice, analyzed by radioactivity) it was 1050 nm/s; in [2] (both, C57BL/6, mouse, other: in situ single-pass jejunal perfusion, 100 μM gemcitabine, jejunum, C57BL/6 mice, analyzed by UPLC), 1140 nm/s. The “effective permeability (Peff)” value in [2] (100 μM gemcitabine, jejunum, C57BL/6 mice, analyzed by UPLC) is 1100 nm/s. In [2] (both, C57BL/6, mouse, other: in situ single-pass jejunal perfusion, pH 6, in situ jejunal permeability, 5 μM gemcitabine, C57BL/6 mice), the Papp at 90 min, 5 μM fell in the range of 1500 to 1900 nm/s. In data set [2] (setting [13]), the “predicted contribution of the high-affinity transport system to uptake” value is listed as 72%. Further, the “predicted contribution of the low-affinity transport system to uptake” value in data set [2] (setting [13]) was 28%. Further, the “Vmax,1 (high-affinity, low-capacity transport system)” value in data set [2] (setting [14]) is 3.6 pmol/cm^2/s and 3.6 ± 2.1 pmol/cm^2/s. The “Vmax,2 (low-affinity, high-capacity transport system)” value in data set [2] (setting [14]) is 35.9 pmol/cm^2/s and 35.9 ± 5.5 pmol/cm^2/s.
On to `Cc1cn([C@H]2C[C@H](O)[C@@H](CO)O2)c(=O)[nH]c1=O` [thymidine], for which, in [4] (setting [12]), the “reduction of jejunal permeability of gemcitabine” value is given as “about 95%” and the “residual permeability of gemcitabine” value is recorded as 4.6%.
For the compound `CC(C)[C@H](N)C(=O)OCCOCn1cnc2c(=O)[nH]c(N)nc21` [valacyclovir], in data set [1], the “in situ jejunal permeability (Peff)” value is 9e-05 cm/s.
For the compound glycylsarcosine, in data set [1] (mouse), the “in situ jejunal permeability (Peff)” value is 0.00017 cm/s.
